# Laboratory results as given in patent US9289446B2, “Myocardial perfusion imaging methods and compositions” (GILEAD SCIENCES, INC., priority 2002, dated 2016).
# Columns and labels:
# [1] = Example 3: maximum tolerated dose and safety of single IV bolus CVT-3146 in healthy volunteers, supine and standing; format: in vivo; details: 30 μg/kg supine, 4 subjects per group
# Method: This Example is a study performed to evaluate (1) the maximum tolerated dose of CVT-3146 and (2) the pharmacokinetic profile of CVT-3146 in healthy volunteers, after a single IV bolus dose.
# The study was performed using thirty-six healthy, non-smoking male subjects between the ages of 18 and 59 and within 15% of ideal body weight.
# The study was performed in phase 1, single center, double-blind, randomized, placebo-controlled, crossover, ascending dose study. Randomization was to CVT-3146 or placebo, in both supine and standing positions.
# CVT-3146 was administered as an IV bolus (20, seconds) in ascending doses of […], 10, 20, and 30 μg/kg.
# Subjects received either CVT-3146 of placebo on Day 1 supine, then crossover treatment on Day 2 supine. On Day 3, subjects received CVT-3146 or placebo standing, then crossover treatment on Day 4 standing.
# Patient safety was monitored by ECG, laboratory assessments, and collection of vital signs and adverse events.
# Pharmacodynamics: • The study evaluated the relationship of changes in heart rate to dose in both standing and supine positions and plasma concentration in the supine position. Results
# [2] = tested on: blood flow velocity in LCX, BA, FA and PA; test: Example 4: blood flow velocity (APV) in various vascular beds in the anesthetized dog; format: in vivo; details: 1.0 μg/kg iv bolus
# Excerpt: CVT-3146 is a novel selective A2A adenosine receptor agonist being developed as a pharmacologic stressor for radionuclide myocardial perfusion imaging. […] The goal of this study was to determine the differential effects of CVT-3146 on blood flow velocity in various vascular beds.
# The effects of CVT-3146 were quantified as the average peak blood flow velocity (APV) using intravascular Doppler transducer tipped catheter. Heart rate (HR) and systemic arterial blood pressure (BP) were also monitored.
# [3] = tested on: heart rate (HR) and blood pressure (BP); test: Example 5: heart rate, blood pressure and plasma catecholamines after i.v. bolus in awake rats (sympathoexcitation); format: in vivo
# Method: The present study was carried out to determine whether CVT-3146, a selective A2A adenosine receptor agonist, causes sympathoexcitation.
# CVT (0.31 μg/kg-50 μg/kg) was given as a rapid i.v. bolus to awake rats and heart rate (HR) and blood pressure (BP) were monitored. CVT-3146 caused an increase in BP and systolic pressure (SP) at lower doses while at higher doses there was a decrease in BP and SP. […] The increase in HR was evident at the lowest dose of CVT at which there was no appreciable decrease in BP. ZM241385 (30 μg/kg, N=5), an A2A receptor antagonist, attenuated the decrease in BP (CVT-3146: 14±3%, ZM: 1±1%) and the increase in HR (CVT: 27±3%, ZM: 18±3%) caused by CVT-3146. Pretreatment with metoprolol (MET, 1 mg/kg, n=5), a beta-blocker, attenuated the increase in HR (CVT: 27±3%, MET: 15±2%), but had no effect on hypotension caused by CVT-3146. In the presence of hexamethonium (HEX, 10 mg/kg, n=5), a ganglionic blocker, the tachycardia was prevented (CVT: 27±3%, HEX: −1±2%), but BP was further reduced (CVT: −11±2%, HEX: −49±5%).
# [4] = tested on: myocardial ischemia detection (SPECT MPI); test: Example 6: stress/rest SPECT myocardial perfusion imaging, CVT-3146 versus adenosine; format: in vivo, human; details: 400 mcg vs 500 mcg
# Excerpt: Pharmacologic stress SPECT myocardial perfusion imaging (MPI) with adenosine (A) is a well-accepted technique, with excellent diagnostic and prognostic value and proven safety. However, side effects are common and AV nodal block and severe flushing are poorly tolerated. Agents such as CVT-3146 selectively act upon the A2A adenosine receptor and avoid stimulation of other receptor subtypes which may prevent such adverse reactions.
# To determine the ability of CVT-3146 to produce coronary hyperemia and accurately detect CAD, 35 subjects (26 men, 9 women; 67±10 years) underwent both A and CVT-3146 stress/rest MPI, with 10.0±9.1 days between studies. […] CVT-3146 [400 mcg (n=18), 500 mcg (n=17)] was administered as an IV bolus immediately followed by a saline flush, and then a Tc-99m radiopharmaceutical [sestamibi (n=34), tetrofosmin (n=1)]. SPECT images were uniformly processed, intermixed with control studies (normal and fixed-only defects), and interpreted by three observers in a blinded fashion using a 17-segment model. Quantitative analysis was also performed using 4D MSPECT. In addition to three separate readings, a consensus interpretation was performed and then a direct, same-screen comparison of A and CVT-3146 images undertaken to determine relative differences, using 5 regions per study.
# [5] = Example 7: adverse effects and hemodynamic effects of CVT-3146 as pharmacologic stress agent in MPI protocol; format: in vivo, human
# Excerpt: CVT-3146 is a selective A2A adenosine receptor agonist that produces coronary hyperemia and potentially less adverse effects due to its limited stimulation of receptor subtypes not involved with coronary vasodilation. This study evaluated the effectiveness of CVT-3146 as a pharmacologic stress agent.
# 36 subjects (27 men, 9 women; 67±10 years) were studied with two doses of CVT-3146 [400 mcg (n=18), 500 mcg (n=18)], administered as an IV bolus, as part of a pharmacologic stress myocardial perfusion imaging protocol.
# [6] = 36 subjects, 400 or 500 mcg IV bolus
smiles,measurement,setting,value
"CNC(=O)c1cnn(-c2nc(N)c3ncn([C@@H]4O[C@H](CO)[C@@H](O)[C@H]4O)c3n2)c1 [CVT-3146, (1-{9-[(4S,2R,3R,5R)-3,4-dihydroxy-5-(hydroxymethyl)oxolan-2-yl]-6-aminopurin-2-yl}pyrazol-4-yl)-N-methylcarboxamide]","Dizziness labeled as severe, number of subjects with AE",[1],0
same,"Palpitation labeled as severe, number of subjects with AE",[1],2
same,"Syncope labeled as severe, number of subjects with AE",[1],0
same,decrease in BP,[2],12 mmHg
same,time for effect on blood flow velocity to dissipate,[2],less than ten
same,transient increase in HR,[2],16 bpm
same,effect on HR over dose,[3]; 0.31 μg/kg-50 μg/kg rapid i.v. bolus,dose-dependent increase in HR
same,decrease in BP caused by CVT-3146,"[3]; CVT-3146 alone (comparison with ZM241385), awake rats",14±3%
same,change in BP caused by CVT-3146,[3]; CVT-3146 alone (comparison with hexamethonium),−11±2%
same,increase in HR caused by CVT-3146,"[3]; CVT-3146 alone, awake rats",27±3%
same,dose-dependent effect on ischemia detection,[4],No dose-dependent effect
same,incidence of adverse effects (AE),[5]; [6],72%
same,patients with adverse effects (AE),[5]; [6],26 pts
same,tolerability,[5]; 400 and 500 mcg IV bolus,well-tolerated and has acceptable hemodynamic effects
same,"Diastolic BP, peak Absolute Change","[5]; 400 and 500 mcg, mean±S.D.",−5.4 ± 7.2 mmHg
same,"Diastolic BP, peak Relative Change","[5]; 400 and 500 mcg, mean±S.D.",−7.9% ± 10.5%
same,"Heart Rate, peak Absolute Change","[5]; 400 and 500 mcg, mean±S.D.",+21.9 ± 10.4 beats per min
same,"Heart Rate, peak Relative Change","[5]; 400 and 500 mcg, mean±S.D.",+36.7% + 21.0%
same,"Systolic BP, peak Absolute Change","[5]; 400 and 500 mcg, mean±S.D.",−5.9 ± 10.7 mmHg
same,"Systolic BP, peak Relative Change","[5]; 400 and 500 mcg, mean±S.D.",−4.1% ± 7.6%
same,serious AE,[5]; both doses,"One serious AE occurred, with exacerbation of a migraine headache"
same,share of AEs mild to moderate,[5]; both doses,96%
same,share of AEs resolved within 15 min without treatment,[5]; both doses,91%
same,"time of peak hemodynamic effect, heart rate (HR)",[5]; both doses,≤ 0.033 h
same,"time of peak hemodynamic effect, systolic blood pressure (BP)",[5]; both doses,4 min
same,deviation of BP from baseline,[5]; thirty min after CVT-3146,< 2%
